In US20050130983A1, “Pyrrolopyrimidinone derivatives, process for preparation thereof, and method of using and composition comprising them” (priority 2002, published 2005):

Structure (SMILES) | melting point
CCCc1cn(C)c2c(=O)[nH]c(-c3cc(S(=O)(=O)N4CCN(CCCOC(C)=O)CC4)ccc3OCC)nc12 [Example 6, 2-{5-[4-(3-Acetoxypropyl)piperazin-1-ylsulfonyl]-2-ethoxyphenyl}-5-methyl-7-n-propyl-3,5-dihydro-4H-pyrrolo[3,2-d]pyrimidin-4-one] | 157 to 158.5 °C
CCCOc1ccc(S(=O)(=O)N2CCN(CCOC(C)=O)CC2)cc1-c1nc2c(CCC)cn(CC)c2c(=O)[nH]1 [Example 7, 2-{5-[4-(2-Acetoxyethyl)piperazin-1-ylsulfonyl]-2-n-propoxyphenyl}-5-ethyl-7-n-propyl-3,5-dihydro-4H-pyrrolo[3,2-d]pyrimidin-4-one] | 139 to 140 °C
CCCOc1ccc(S(=O)(=O)N2CCN(CCOC(=O)CC)CC2)cc1-c1nc2c(CCC)cn(CC)c2c(=O)[nH]1 [Example 10, 5-Ethyl-2-{5-[4-(2-propionyloxyethyl)piperazin-1-ylsulfonyl]-2-n-propoxyphenyl}-7-n-propyl-3,5-dihydro-4H-pyrrolo[3,2-d]pyrimidin-4-one] | 126.5 to 127.5 °C
CCCOc1ccc(S(=O)(=O)N2CCN(CCOC(=O)CCC)CC2)cc1-c1nc2c(CCC)cn(CC)c2c(=O)[nH]1 [Example 12, 2-{5-[4-(2-Butyryloxyethyl)piperazin-1-ylsulfonyl]-2-n-propoxyphenyl}-5-ethyl-7-n-propyl-3,5-dihydro-4H-pyrrolo[3,2-d]pyrimidin-4-one] | 71.5 to 73 °C
CCCOc1ccc(S(=O)(=O)N2CCN(CCOC(=O)C(C)C)CC2)cc1-c1nc2c(CCC)cn(CC)c2c(=O)[nH]1 [Example 14, 5-Ethyl-2-{5-[4-(2-isobutyryloxyethyl)piperazin-1-ylsulfonyl]-2-n-propoxyphenyl}-7-n-propyl-3,5-dihydro-4H-pyrrolo[3,2-d]pyrimidin-4-one] | 88 to 89 °C
CCCOc1ccc(S(=O)(=O)N2CCN(CCOC(=O)c3ccccc3)CC2)cc1-c1nc2c(CCC)cn(CC)c2c(=O)[nH]1 [Example 16, 2-{5-[4-(2-Benzoyloxyethyl)piperazin-1-ylsulfonyl]-2-n-propoxyphenyl}-5-ethyl-7-n-propyl-3,5-dihydro-4H-pyrrolo[3,2-d]pyrimidin-4-one] | 78 to 79 °C
CCCOc1ccc(S(=O)(=O)N2CCN(CCOC(=O)OCC)CC2)cc1-c1nc2c(CCC)cn(CC)c2c(=O)[nH]1 [Example 17, 2-{5-[4-(2-Ethoxycarbonyloxyethyl)piperazin-1-ylsulfonyl]-2-n-propoxyphenyl}-5-ethyl-7-n-propyl-3,5-dihydro-4H-pyrrolo[3,2-d]pyrimidin-4-one] | 135 to 136 °C
CCCOc1ccc(S(=O)(=O)N2CCN(CCOC(C)=O)CC2)cc1-c1nc2c(CCCF)cn(CC)c2c(=O)[nH]1 [Example 19, 2-{5-[4-(2-Acetoxyethyl)piperazin-1-ylsulfonyl]-2-n-propoxyphenyl}-5-ethyl-7-(3-fluoropropyl)-3,5-dihydro-4H-pyrrolo[3,2-d]pyrimidin-4-one] | 134 to 135 °C
